The values below come from patent US9127015B2, “Tricyclopyrazole derivatives” (NERVIANO MEDICAL SCIENCES S.R.L., priority 2009, dated 2015).

What all share (assay): Kinase inhibition assay, IC50 (Table A)
Common to all, as to assay type: biochemical

The target in one assay is ABL (Homo sapiens, UniProt P00519). Conditions: Enzyme ABL. The method, then: (§1) The inhibiting activity of putative kinase inhibitors and the potency of selected compounds is determined through a method of assay based on the use of the Kinase-Glo® Luminescent Kinase Assay (commercially available from Promega corporation and described in Koresawa, M. and Okabe, T. (2004) High-throughput screening with quantitation of ATP consumption: A universal non-radioisotope, homogeneous assay for protein kinase. Assay Drug Dev. Technol. 2, 153-60).
ABL, sequence (P00519 whole entry): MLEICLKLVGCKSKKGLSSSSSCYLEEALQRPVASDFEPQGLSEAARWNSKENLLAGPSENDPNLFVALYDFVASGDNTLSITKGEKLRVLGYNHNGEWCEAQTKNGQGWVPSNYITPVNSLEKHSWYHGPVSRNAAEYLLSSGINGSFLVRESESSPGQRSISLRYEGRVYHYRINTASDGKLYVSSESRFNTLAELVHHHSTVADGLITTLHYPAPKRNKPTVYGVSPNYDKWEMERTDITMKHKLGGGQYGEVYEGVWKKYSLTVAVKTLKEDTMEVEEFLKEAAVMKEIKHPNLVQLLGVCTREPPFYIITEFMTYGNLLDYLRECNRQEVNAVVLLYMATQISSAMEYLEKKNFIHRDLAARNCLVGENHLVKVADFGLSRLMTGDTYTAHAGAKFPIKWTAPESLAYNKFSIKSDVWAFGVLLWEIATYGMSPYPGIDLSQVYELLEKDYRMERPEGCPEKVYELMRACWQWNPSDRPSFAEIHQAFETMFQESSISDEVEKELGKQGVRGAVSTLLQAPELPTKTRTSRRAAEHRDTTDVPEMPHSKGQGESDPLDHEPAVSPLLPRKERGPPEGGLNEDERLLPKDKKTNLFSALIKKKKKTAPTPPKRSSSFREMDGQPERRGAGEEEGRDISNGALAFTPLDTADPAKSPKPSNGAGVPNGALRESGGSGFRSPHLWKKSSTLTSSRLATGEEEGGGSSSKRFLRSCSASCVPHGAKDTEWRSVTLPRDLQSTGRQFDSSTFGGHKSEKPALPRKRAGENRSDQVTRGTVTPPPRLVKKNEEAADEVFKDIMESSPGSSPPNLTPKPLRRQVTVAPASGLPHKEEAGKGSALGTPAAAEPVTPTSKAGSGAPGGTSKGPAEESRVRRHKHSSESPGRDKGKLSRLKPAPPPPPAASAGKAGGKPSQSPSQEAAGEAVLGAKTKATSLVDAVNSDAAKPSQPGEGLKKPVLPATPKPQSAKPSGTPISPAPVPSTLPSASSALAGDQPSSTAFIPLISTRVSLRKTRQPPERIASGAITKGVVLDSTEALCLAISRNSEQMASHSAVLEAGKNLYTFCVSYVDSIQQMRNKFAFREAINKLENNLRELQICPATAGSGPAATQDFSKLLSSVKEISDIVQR
(§2) The inhibitory activity of putative kinase inhibitors and the potency of selected compounds were also determined using a trans-phosphorylation assay.
(§3) Specific peptide or protein substrates are trans-phosphorylated by their specific ser-thr or tyr kinase in the presence of ATP traced with ^33P-γ-ATP, and in the presence of their own optimal buffer and cofactors. At the end of the phosphorylation reaction, more than 98% unlabeled ATP and radioactive ATP is captured by an excess of the ion exchange dowex resin; the resin then settles down to the bottom of the reaction plate by gravity. Supernatant is subsequently withdrawn and transferred into a counting plate, then evaluated by β-counting.
(§4) Reaction conditions are target (enzyme) dependent and thus undergo individual adaptations. Also the buffer conditions may vary depending on the kinase of interest. The assay can be used with virtually any kinase and substrate combination and is suitable for all type of protein kinases, such as ABL, ACK1, AKT1, ALK, AUR1, AUR2, BRK, BUB1, CDC7/DBF4, CDK21CYCA, CHK1, CK2, EEF2K, EGFR1, EphA2, EphB4, ERK2, FAK, FGFR1, FLT3, GSK3beta, Haspin, IGFR1, IKK2, IR, JAK1, JAK2, JAK3, KIT, LCK, LYN, MAPKAPK2, MELK, MET, MNK2, MPSI, MST4, NEK6, NIM1, P38alpha, PAK-4, PDGFR, PDK1, PERK, PIM1, PIM2, PKAalpha, PKCbeta, PLK1, RET, ROS1, SULU1, Syk, TLK2, TRKA, TYK, VEGFR2, VEGFR3, ZAP70.

Another assay concerns the target KIT (Homo sapiens, UniProt P10721). Conditions: Enzyme KIT. The method, then:
as §1, §2, §3, §4

The target in a further assay is LCK (Homo sapiens, UniProt P06239). The conditions noted are these: Enzyme LCK. The method, then:
as §1, §2, §3, §4

The target of the next assay is ACK1 (Homo sapiens, UniProt Q07912). The conditions noted are these: Enzyme ACK1. As for the experimental part:
as §1, §2, §3, §4

A further assay addresses T1, ZAP70 (Homo sapiens, UniProt P43403).
T1 sequence (P43403 1-619): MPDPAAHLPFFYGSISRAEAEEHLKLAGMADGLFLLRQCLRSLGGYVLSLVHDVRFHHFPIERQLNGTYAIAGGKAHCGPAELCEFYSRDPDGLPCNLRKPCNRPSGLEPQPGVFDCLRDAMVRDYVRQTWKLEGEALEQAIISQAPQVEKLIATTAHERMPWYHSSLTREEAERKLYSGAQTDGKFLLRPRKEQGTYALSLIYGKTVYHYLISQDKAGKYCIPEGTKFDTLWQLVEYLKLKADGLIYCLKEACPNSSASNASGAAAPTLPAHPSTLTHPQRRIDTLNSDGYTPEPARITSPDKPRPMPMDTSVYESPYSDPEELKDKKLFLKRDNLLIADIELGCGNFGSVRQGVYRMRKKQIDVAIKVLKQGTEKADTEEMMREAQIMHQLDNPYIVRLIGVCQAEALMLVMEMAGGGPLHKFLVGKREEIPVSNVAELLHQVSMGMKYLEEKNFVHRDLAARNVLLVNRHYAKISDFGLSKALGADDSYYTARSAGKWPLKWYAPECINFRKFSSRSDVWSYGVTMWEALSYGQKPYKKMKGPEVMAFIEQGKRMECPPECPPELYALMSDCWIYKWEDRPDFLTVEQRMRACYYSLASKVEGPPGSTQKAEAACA
Conditions: Enzyme ZAP70. The method, then: as §1, §2, §3, §4

The next assay deals with Syk (Homo sapiens, UniProt P43405). The conditions noted are these: Enzyme Syk. The method, then:
as §1, §2, §3, §4

The target in a further assay is MELK (Homo sapiens, UniProt Q14680). Conditions: Enzyme MELK. As for the experimental part:
as §1, §2, §3, §4

Another assay has as its target BRK (Homo sapiens, UniProt Q13882). The conditions noted are these: Enzyme BRK. The method, then: as §1, §2, §3, §4
A further assay concerns the target VEGFR3 (Homo sapiens, UniProt P35916). Conditions: Enzyme VEGFR3. The method, then:
as §1, §2, §3, §4

The target of a further assay is ALK (Homo sapiens, UniProt Q9UM73). Conditions: Enzyme ALK. The method, then:
as §1
As example herein are reported the assay conditions used for testing the compounds of formula (I) against ALKtide YFF APCo kinase; • ATP concentration: 1 μM • Enzyme concentration: 100 nM • Reaction buffer: Hepes 50 mM pH 7.5, MgCl2 5 mM, MnCl2 1 mM, DTT 1 mM, Na3VO4 3 uM, 0.2 mg/ml BSA. • Assay procedure: add 5 ul compound of formula (I) (3×), add 5 μl ATP/S mix (3×) in buffer 1×; add 5 μl enzyme in buffer 2×+3×BSA; for the blank, add 5 μl buffer 2×+3×BSA without enzyme. After 90 minutes of incubation, add 15 μl/well of Kinase-Glo reagent. After 60-90 minutes of incubation to stabilize the luminescent signal, the plates are read on a ViuwLux instrument.
as §2, §3
Reaction conditions are target (enzyme) dependent and thus undergo individual adaptations. Also the buffer conditions may vary depending on the kinase of interest. […]

The structures appear in SMILES notation. Where “and” joins values, the source holds several entries; their conditions need not be identical. Identical values can stand only once.

ACK1, sequence (Q07912 whole entry): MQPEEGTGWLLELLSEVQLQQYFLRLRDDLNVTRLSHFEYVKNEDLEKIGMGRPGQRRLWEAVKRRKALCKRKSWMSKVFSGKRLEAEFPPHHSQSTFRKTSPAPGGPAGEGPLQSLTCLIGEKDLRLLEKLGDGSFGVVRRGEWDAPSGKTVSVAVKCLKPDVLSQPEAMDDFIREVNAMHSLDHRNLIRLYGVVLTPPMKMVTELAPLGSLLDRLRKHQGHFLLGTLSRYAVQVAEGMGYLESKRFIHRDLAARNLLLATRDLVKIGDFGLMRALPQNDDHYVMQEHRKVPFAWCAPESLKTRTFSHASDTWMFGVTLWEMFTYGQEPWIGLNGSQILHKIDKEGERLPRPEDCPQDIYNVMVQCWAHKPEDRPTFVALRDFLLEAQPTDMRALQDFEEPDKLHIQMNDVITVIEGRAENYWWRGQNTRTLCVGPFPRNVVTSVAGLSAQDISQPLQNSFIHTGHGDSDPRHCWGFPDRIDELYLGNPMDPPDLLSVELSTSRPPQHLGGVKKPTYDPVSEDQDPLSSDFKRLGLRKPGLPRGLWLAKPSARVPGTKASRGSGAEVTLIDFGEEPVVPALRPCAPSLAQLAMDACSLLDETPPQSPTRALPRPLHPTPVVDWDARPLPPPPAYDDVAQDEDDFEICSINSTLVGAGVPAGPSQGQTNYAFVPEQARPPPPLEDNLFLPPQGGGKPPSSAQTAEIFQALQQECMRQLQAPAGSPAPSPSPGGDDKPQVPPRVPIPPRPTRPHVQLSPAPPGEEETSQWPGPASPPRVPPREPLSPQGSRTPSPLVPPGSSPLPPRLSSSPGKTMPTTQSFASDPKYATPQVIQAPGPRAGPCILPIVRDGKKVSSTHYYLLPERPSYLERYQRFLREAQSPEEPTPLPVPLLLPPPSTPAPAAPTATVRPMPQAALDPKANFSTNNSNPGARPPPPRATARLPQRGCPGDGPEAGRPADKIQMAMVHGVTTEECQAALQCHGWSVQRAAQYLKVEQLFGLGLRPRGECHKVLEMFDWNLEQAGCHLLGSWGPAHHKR
LCK, sequence (P06239 whole entry): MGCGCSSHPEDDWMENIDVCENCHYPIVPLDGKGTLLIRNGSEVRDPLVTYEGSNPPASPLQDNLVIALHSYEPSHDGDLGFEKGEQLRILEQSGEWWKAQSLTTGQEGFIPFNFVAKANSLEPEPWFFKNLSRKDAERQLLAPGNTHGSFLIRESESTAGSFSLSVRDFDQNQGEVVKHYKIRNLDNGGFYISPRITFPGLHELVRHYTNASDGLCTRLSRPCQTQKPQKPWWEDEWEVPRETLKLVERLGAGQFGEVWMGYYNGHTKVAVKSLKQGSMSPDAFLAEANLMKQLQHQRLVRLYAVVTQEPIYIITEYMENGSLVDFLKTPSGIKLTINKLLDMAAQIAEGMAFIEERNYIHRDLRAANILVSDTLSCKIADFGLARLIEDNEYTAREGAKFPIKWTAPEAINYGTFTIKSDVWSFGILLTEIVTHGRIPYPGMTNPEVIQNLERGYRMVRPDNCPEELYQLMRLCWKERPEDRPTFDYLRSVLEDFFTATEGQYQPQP
MELK, sequence (Q14680 whole entry): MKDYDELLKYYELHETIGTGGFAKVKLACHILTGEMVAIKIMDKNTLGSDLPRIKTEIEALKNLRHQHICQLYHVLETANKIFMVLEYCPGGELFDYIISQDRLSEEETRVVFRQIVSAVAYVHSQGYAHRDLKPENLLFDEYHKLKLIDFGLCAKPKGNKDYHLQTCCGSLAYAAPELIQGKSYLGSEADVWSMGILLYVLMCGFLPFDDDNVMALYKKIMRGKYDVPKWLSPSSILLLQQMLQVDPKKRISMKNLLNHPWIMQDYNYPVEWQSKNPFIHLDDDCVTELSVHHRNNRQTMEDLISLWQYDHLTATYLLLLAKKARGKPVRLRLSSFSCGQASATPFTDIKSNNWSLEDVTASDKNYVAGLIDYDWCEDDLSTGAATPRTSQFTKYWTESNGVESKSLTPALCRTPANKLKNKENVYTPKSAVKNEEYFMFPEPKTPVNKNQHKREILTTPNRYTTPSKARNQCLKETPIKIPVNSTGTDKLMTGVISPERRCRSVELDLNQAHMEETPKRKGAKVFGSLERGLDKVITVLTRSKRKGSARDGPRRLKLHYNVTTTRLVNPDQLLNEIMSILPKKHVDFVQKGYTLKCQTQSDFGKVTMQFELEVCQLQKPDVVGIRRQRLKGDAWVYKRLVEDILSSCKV
KIT, sequence (P10721 26-976): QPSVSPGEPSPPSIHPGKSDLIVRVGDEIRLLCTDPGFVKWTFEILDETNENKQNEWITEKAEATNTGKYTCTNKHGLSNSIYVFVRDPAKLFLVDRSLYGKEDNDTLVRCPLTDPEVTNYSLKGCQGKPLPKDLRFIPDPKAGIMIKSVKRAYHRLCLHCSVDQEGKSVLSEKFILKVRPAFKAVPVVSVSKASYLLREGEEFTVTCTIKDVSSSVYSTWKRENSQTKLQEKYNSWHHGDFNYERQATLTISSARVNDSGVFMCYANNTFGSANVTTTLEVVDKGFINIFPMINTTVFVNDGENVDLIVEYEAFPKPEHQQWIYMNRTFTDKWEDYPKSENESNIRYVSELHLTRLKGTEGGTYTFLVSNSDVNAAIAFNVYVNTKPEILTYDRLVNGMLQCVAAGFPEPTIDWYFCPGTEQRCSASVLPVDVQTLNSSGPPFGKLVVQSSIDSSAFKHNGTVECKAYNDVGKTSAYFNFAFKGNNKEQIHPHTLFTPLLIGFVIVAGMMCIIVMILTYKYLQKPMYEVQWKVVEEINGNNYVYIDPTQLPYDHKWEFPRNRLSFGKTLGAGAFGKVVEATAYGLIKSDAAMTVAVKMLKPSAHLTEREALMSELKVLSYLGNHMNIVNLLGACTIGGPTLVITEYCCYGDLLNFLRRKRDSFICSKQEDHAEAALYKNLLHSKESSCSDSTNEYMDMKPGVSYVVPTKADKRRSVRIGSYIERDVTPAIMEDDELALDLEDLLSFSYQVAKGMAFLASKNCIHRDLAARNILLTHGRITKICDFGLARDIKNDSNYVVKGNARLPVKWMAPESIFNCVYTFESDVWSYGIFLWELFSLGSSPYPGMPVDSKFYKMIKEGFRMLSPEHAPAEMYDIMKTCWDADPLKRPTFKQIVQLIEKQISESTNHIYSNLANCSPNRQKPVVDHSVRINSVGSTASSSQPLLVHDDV
BRK, sequence (Q13882 whole entry): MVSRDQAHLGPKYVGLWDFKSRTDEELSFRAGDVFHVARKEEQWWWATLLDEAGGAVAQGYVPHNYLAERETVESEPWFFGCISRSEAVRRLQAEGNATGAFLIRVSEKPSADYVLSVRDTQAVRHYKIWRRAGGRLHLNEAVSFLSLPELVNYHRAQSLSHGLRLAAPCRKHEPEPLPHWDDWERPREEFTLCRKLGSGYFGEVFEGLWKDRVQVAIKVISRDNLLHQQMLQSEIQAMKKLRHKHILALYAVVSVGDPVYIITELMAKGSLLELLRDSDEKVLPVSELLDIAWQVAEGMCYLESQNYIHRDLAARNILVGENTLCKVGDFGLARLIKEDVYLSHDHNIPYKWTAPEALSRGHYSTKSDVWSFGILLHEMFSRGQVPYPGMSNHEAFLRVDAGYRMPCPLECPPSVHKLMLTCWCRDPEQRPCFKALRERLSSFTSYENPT

As usually defined, the IC50 is the point on the concentration scale where inhibition reaches its midpoint. As for `C=CCNC(=O)c1cc2n(c1)CCc1c(NC(=O)c3ccccc3C)n[nH]c1-2` [Example A21-M1-B36], the IC50 at ABL came out at 3230 nM; on KIT it was 5030 nM; on LCK, 5140 nM; on ACK1, 3340 nM.
Regarding `O=C(Nc1n[nH]c2c1CCn1cc(C(=O)N3CCCC3)cc1-2)c1ccccc1Cl` [Example A5-M1-B8], the IC50 at ABL is 1860 nM and 2230 nM; on KIT, 5980 nM; at ACK1, 630 nM and 480 nM.
Take `O=C(Nc1n[nH]c2c1CCCn1cc(C(=O)NC3CCCC3)cc1-2)c1cccnc1` [Example A32-M2-B28]: the IC50 at ZAP70 was 800 nM; at Syk it was 1630 nM; on MELK it was 3090 nM.
In the case of `Cc1ccccc1C(=O)Nc1n[nH]c2c1CCn1cc(C(=O)N3CCC(N4CCCCC4)CC3)cc1-2` [Example A21-M1-B34], the IC50 on ABL was determined as 5340 nM; at BRK, 5060 nM; on ACK1 it was 890 nM.
`O=C(Nc1n[nH]c2c1CCn1cc(C(=O)N3CCC(N4CCCCC4)CC3)cc1-2)c1ccccc1Cl` [Example A5-M1-B34]: the IC50 at ABL stood at 820 nM; on KIT, 4130 nM; on BRK, 860 nM; on LCK it was 3990 nM; at ACK1, 360 nM; on VEGFR3 it was 4940 nM. The IC50 at ALK turned out to be 5810 nM.
With `O=C(NCc1ccncc1)c1cc2n(c1)CCCc1c(NC(=O)c3ccccc3)n[nH]c1-2` [Example A1-M2-B25], the IC50 on ZAP70 stood at 1560 nM.
Consider `O=C(NCC1CC1)c1cc2n(c1)CCc1c(NC(=O)c3c(Cl)cccc3Cl)n[nH]c1-2` [Example A38-M1-B41], for which, at LCK, the IC50 worked out at 4130 nM.
Regarding `CCS(=O)(=O)Nc1n[nH]c2c1CCCn1cc(C(=O)NCCOC)cc1-2` [Example A42-M2-B33], the IC50 at ZAP70 is 1830 nM; at Syk, 3150 nM.
Consider `O=C(NCC1CC1)c1cc2n(c1)CCc1c(NC(=O)c3ccccc3Cl)n[nH]c1-2` [Example A5-M1-B41], for which the IC50 at ABL came to 400 nM; on KIT, 1830 nM; on BRK, 4350 nM; at LCK, 1150 nM; at ACK1, 960 nM.
As to `O=C(Nc1n[nH]c2c1CCn1cc(C(=O)N3CCCC3)cc1-2)c1ccccc1F` [Example A20-M1-B8], the IC50 came to 2430 nM at ABL, 2020 nM on KIT and 1040 nM on ACK1.
As to `Cc1ccccc1C(=O)Nc1n[nH]c2c1CCn1cc(C(=O)N3CCSCC3)cc1-2` [Example A21-M1-B38], the IC50 at BRK is 6300 nM; on ACK1 it was 2040 nM.
For `O=C(NCc1cccs1)c1cc2n(c1)CCc1c(NC(=O)c3ccc4c(c3)OCO4)n[nH]c1-2` [Example A11-M1-B16], on KIT, the IC50 was determined as 2660 nM.
For `O=C(NCc1cccs1)c1cc2n(c1)CCc1c(NC(=O)c3cccc(F)c3)n[nH]c1-2` [Example A8-M1-B16], the IC50 at KIT turned out to be 2680 nM.
Take `Cc1ccc(C(=O)Nc2n[nH]c3c2CCCn2cc(C(=O)N4CCCC4)cc2-3)cc1F` [Example A30-M2-B8]: the IC50 on ZAP70 is 590 nM; on Syk, 2100 nM; on MELK it was 2570 nM.
Regarding `Cc1ccccc1C(=O)Nc1n[nH]c2c1CCn1cc(C(=O)N3CCCC3)cc1-2` [Example A21-M1-B8], the IC50 came to 4940 nM at ABL and 630 nM on ACK1.
As for `COCCNC(=O)c1cc2n(c1)CCCc1c(NC(=O)c3ccc(C)cc3C)n[nH]c1-2` [Example A35-M2-B33], the IC50 at ACK1 stood at 3820 nM.
The same measure, in the same setting: the result for `O=C(NCCN1CCCCC1)c1cc2n(c1)CCc1c(NC(=O)c3ccccc3Cl)n[nH]c1-2` [Example A5-M1-B31] reads 3160 nM; that for `COCCNC(=O)c1cc2n(c1)CCCc1c(NC(=O)c3ccccc3Cl)n[nH]c1-2` [Example A5-M2-B33], 2470 nM.
Take `CCN1CCN(C(=O)c2cc3n(c2)CCCc2c(NC(=O)c4cc(C)cc(C)c4)n[nH]c2-3)CC1` [Example A24-M2-B37]: the IC50 on ZAP70 was 1150 nM; on Syk, 2780 nM; on MELK, 3000 nM.
Take `C=CCNC(=O)c1cc2n(c1)CCCc1c(NC(=O)c3ccc(C)cc3C)n[nH]c1-2` [Example A35-M2-B36]: the IC50 on ACK1 is 3980 nM.
For the compound `O=C(NCc1ccccn1)c1cc2n(c1)CCc1c(NC(=O)c3ccccc3Cl)n[nH]c1-2` [Example A5-M1-B26], the IC50 at ACK1 is 3040 nM.
`O=C(NCCc1ccc(Cl)cc1)c1cc2n(c1)CCc1c(NC(=O)c3ccco3)n[nH]c1-2` [Example A9-M1-B13]: on KIT, the IC50 came out at 5850 nM.
Consider `CC(C)CNC(=O)c1cc2n(c1)CCc1c(NC(=O)c3ccccc3Cl)n[nH]c1-2` [Example A5-M1-B39], for which the IC50 at ACK1 amounted to 1940 nM.
In the case of `CCN1CCN(C(=O)c2cc3n(c2)CCc2c(NC(=O)c4ccccc4Cl)n[nH]c2-3)CC1` [Example A5-M1-B37], the IC50 at ABL was 5100 nM; on BRK, 5770 nM; at ACK1 it was 1000 nM.
Take `O=C(NC1CC1)c1cc2n(c1)CCc1c(NC(=O)c3ccccc3Cl)n[nH]c1-2` [Example A5-M1-B30]: at ACK1, the IC50 worked out at 4710 nM.
For `O=C(NCc1cccs1)c1cc2n(c1)CCc1c(NC(=O)c3ccco3)n[nH]c1-2` [Example A9-M1-B16], on KIT, the IC50 is 850 nM.
Regarding `O=C(Nc1n[nH]c2c1CCn1cc(C(=O)N3CCCCC3)cc1-2)c1ccccc1Cl` [Example A5-M1-B42], the IC50 at ABL came to 1790 nM; at KIT, 6610 nM; on BRK it was 3640 nM; on ACK1 it was 440 nM.
In the case of `CN1CCN(c2ccc(C(=O)Nc3n[nH]c4c3CCn3cc(C(=O)N(C)C)cc3-4)cc2)CC1` [Example A16-M1-B19], the IC50 on KIT turned out to be 4470 nM.
For `CC(C)CNC(=O)c1cc2n(c1)CCCc1c(NC(=O)c3ccccc3Cl)n[nH]c1-2` [Example A5-M2-B39], the IC50 at ACK1 is 550 nM.
With `CC(C)(C)C(=O)Nc1n[nH]c2c1CCCn1cc(C(=O)N3CCC(N4CCCCC4)CC3)cc1-2` [Example A33-M2-B34], the IC50 at ZAP70 is 720 nM; on ACK1, 1440 nM; on Syk it was 480 nM; at MELK it was 1230 nM.
For the compound `Cc1ccc(C(=O)Nc2n[nH]c3c2CCn2cc(C(=O)NCC(C)C)cc2-3)c(C)c1` [Example A35-M1-B39], the half-inhibitory concentration (IC50) at ACK1 is 2850 nM.
On to `CCCN1CCN(C(=O)c2cc3n(c2)CCc2c(NC(=O)c4ccccc4Cl)n[nH]c2-3)CC1` [Example A5-M1-B32], for which the IC50 at ACK1 worked out at 1380 nM.
The same measure, in the same setting: the result for `O=C(Nc1n[nH]c2c1CCn1cc(C(=O)N3CCOCC3)cc1-2)c1ccccc1Cl` [Example A5-M1-B7] reads 1430 nM.
With `O=C(NCc1ccncc1)c1cc2n(c1)CCc1c(NC(=O)c3ccccc3Cl)n[nH]c1-2` [Example A5-M1-B25], at ACK1, the IC50 is 1920 nM.
